Each compound was assayed against PFKFB3 (Homo sapiens (Human), UniProt Q16875) (assay: PFKFB3 kinase activity, Method A (F-2,6-P2 production, coupled PPi-PFK/NADH assay)).
Format: biochemical
Description: The PFKFB3 (placenta form) and PFKFB4 were produced and purified to homogeneity from E. coli at Biovitrum and at Sprint Bioscience. All other reagents were purchased from commercial sources. Two independent methods have been used for determination of the kinase activity of PFKFB3 (Method A and Method B). Method B has been used for determination of the kinase activity of PFKFB4.
Method A: The kinase activity of the bi-functional enzyme is readily quantified based on the production of F-2,6-P2 as described by Van Schaftingen et al. (1982) Eur. J. Biochem. 129, 191-5. This sensitive assay is based on the potent activation of pyrophosphate dependent phosphofructokinase-1 (PPi-PFK) from potato tubers by F-2,6-P2. The use of a series of coupled enzymes leads to a consumption of NADH (nicotinamide adenine dinucleotide) that can be followed spectrophotometrically (an updated protocol is available in Van Schaftingen, (1984) Methods of Enzymatic Analysis (Bergmeyer, H. U., ed.), 3rd edn., vol. 6, pp. 335-341, Verlag Chemie, Weinheim). A protocol for measurements in 96-well microtiter plate format is also available (Bruni et al., (1989) Anal. Biochem. 178, 324-6). These assay protocols have been adopted for the measurement of the kinase activity of PFKFB3 with some modifications as described in the protocol below.
The assay was run in 96-well microtiter plates (Costar 3365 round bottom polypropylene) by consecutive additions of 30 μl each of a test compound solution (diluted from a DMSO stock solution), a PFKFB3 solution and a substrate (fructose-6-phosphate (F6P) and adenosine-5′-triphosphate (ATP)) containing solution. […] The final concentrations of all reagents in a total assay volume of 90 μl per well were: • 50 mM Tris-acetate at pH 8.0 • 0.1 mM EDTA (ethylene diamine tetraacetic acid) • 10 mM MgCl2 • 5 mM Na2HPO4 (buffered by the Tris-acetate to a final pH of 8.0) • 5 nM PFKFB3 • 4 μM ATP • 100 μM F6P (acid treated and then neutralized to remove any contaminating F-2,6-P2; see Van Schaftingen, 1984) • 1 mM dithiothreitol (DTT) • 0.005% Tween-20
A test compound at various concentrations (which also added 0.83% DMSO to the final solution)
The enzymatic reaction was allowed to proceed for 10 minutes at room temperature while on a plate shaker at medium speed (750 RPM). The reaction was then terminated by the addition of 90 μl of a 0.4 M NaOH solution to all wells. The plate was then placed on the plateshaker at the same speed for two minutes to allow sufficient mixing. All samples were then diluted by a factor of 10 by transferring 20 μl from each well to the corresponding well of a new plate with 180 μl distilled water predispensed to all wells.
The next step in the protocol was quantification of the levels of F-2,6-P2 in each well of the microtiter plate. This was done by transferring 20 μl of the content in each well to the corresponding position in a new plate (Nunc 269620 transparent 96-well plate). […] To ensure that all measured values were within the linear range of the response (measured to be between 0-1 nM of F-2,6-P2 as also described by Van Schaftingen) the same volume of a 2.5 nM and a 5.0 nM standard sample were also added to column 12 (as all samples were diluted five-fold in the assay procedure this corresponds to 0.5 and 1.0 nM samples). The procedure then involved consecutive additions of three solutions with the following premixed components: • Assay-mix (20 μl): Tris-acetate at pH 8.0, NADH and Mg(OAc)2 • PPi/F6P-mix (40 μl): Pyrophosphate and F6P • Enzyme-mix (20 μl): Tris-acetate at pH 8.0, aldolase, triose phosphate isomerase, glycerol-3-phosphate dehydrogenase, pyrophosphate-dependent phosphofructokinase from potato tubers and bovine serum albumin (BSA) […]

Chain of PFKFB3 (Q16875 whole entry): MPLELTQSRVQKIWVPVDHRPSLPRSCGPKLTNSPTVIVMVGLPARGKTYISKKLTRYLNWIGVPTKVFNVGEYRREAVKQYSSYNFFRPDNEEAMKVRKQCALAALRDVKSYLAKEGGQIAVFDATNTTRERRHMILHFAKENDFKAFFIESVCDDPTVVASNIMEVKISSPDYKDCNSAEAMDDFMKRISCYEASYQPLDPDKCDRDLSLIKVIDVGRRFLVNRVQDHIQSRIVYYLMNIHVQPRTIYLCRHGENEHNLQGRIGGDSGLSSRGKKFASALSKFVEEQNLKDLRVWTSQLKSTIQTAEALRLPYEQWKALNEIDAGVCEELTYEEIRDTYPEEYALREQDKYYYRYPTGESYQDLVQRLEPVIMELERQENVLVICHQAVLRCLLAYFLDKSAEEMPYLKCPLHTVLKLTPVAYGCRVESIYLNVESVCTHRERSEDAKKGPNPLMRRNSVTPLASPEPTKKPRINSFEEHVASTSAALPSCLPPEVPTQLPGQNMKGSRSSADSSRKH

IC50 [nM] | SMILES
280 | O=S(=O)(Nc1cccc(-c2nnn[nH]2)c1)c1ccc(Cl)c(Cl)c1Cl [Example 1, 2,3,4-Trichloro-N-[3-(1H-tetrazol-5-yl)phenyl]benzenesulfonamide]
3910 | O=S(=O)(Nc1cccc(-c2nnn[nH]2)c1)c1ccc(-c2cnco2)s1 [Example 2, 5-(1,3-Oxazol-5-yl)-N-[3-(1H-tetrazol-5-yl)phenyl]thiophene-2-sulfonamide]
610 | Cc1nc(NS(=O)(=O)c2sc3ccc(C(C)C)cc3c2C)sc1C(=O)O [Example 8, 2-{[(5-Isopropyl-3-methyl-1-benzothien-2-yl)sulfonyl]amino}-4-methyl-1,3-thiazole-5-carboxylic acid]
730 | Cc1c(S(=O)(=O)Nc2cncc(C(=O)O)c2)sc2ccc(C(C)C)cc12 [Example 9, 5-{[(5-Isopropyl-3-methyl-1-benzothien-2-yl)sulfonyl]amino}nicotinic acid]
810 | Cc1c(S(=O)(=O)Nc2cccc(C(=O)O)n2)sc2ccc(C(C)C)cc12 [Example 10, 6-{[(5-Isopropyl-3-methyl-1-benzothien-2-yl)sulfonyl]amino}pyridine-2-carboxylic acid]
850 | Cc1c(S(=O)(=O)Nc2cc(C(=O)O)cc([N+](=O)[O-])c2)sc2ccc(C(C)C)cc12 [Example 11, 3-{[(5-Isopropyl-3-methyl-1-benzothien-2-yl)sulfonyl]amino}-5-nitrobenzoic acid]
1020 | Cc1c(S(=O)(=O)Nc2cccc(-c3nnn(CC(=O)O)n3)c2)sc2ccc(C(C)C)cc12 [Example 12, [5-(3-{[(5-Isopropyl-3-methyl-1-benzothien-2-yl)sulfonyl]amino}phenyl)-2H-tetrazol-2-yl]acetic acid]
80 | Cc1c(S(=O)(=O)Nc2cccc(-c3nnn[nH]3)c2)oc2ccc(C(C)C)cc12 [Example 13, 5-Isopropyl-3-methyl-N-[3-(1H-tetrazol-5-yl)phenyl]-1-benzofuran-2-sulfonamide]
280 | Cc1c(S(=O)(=O)Nc2cccc(C(=O)O)c2)oc2ccc(C(C)C)cc12 [Example 14, 3-{[(5-Isopropyl-3-methyl-1-benzofuran-2-yl)sulfonyl]amino}benzoic acid]
230 | Cc1c(S(=O)(=O)Nc2cccc(CC(=O)O)c2)sc2ccc(C(C)C)cc12 [Example 15, (3-{[(5-Isopropyl-3-methyl-1-benzothien-2-yl)sulfonyl]amino}phenyl)acetic acid]
450 | O=S(=O)(Nc1cccc(-c2nnn[nH]2)c1)c1cccc(-c2ccc(F)cc2)c1 [Example 17, 4′-Fluoro-N-[3-(1H-tetrazol-5-yl)phenyl]biphenyl-3-sulfonamide]
720 | COc1ccc(-c2cccc(S(=O)(=O)Nc3cccc(-c4nnn[nH]4)c3)c2)cc1 [Example 19, 4′-Methoxy-N-[3-(1H-tetrazol-5-yl)phenyl]biphenyl-3-sulfonamide]
850 | O=S(=O)(Nc1cccc(-c2nnn[nH]2)c1)c1ccc2ccccc2c1 [Example 20, N-[3-(1H-Tetrazol-5-yl)phenyl]naphthalene-2-sulfonamide]
310 | Cc1nc(-c2ccc(S(=O)(=O)Nc3cccc(-c4nnn[nH]4)c3)s2)cs1 [Example 25, 5-(2-Methyl-1,3-thiazol-4-yl)-N-[3-(1H-tetrazol-5-yl)phenyl]thiophene-2-sulfonamide]
1390 | O=S(=O)(Nc1cccc(-c2nnn[nH]2)c1)c1ccc(-c2ccccc2)cc1 [Example 31, N-[3-(1H-Tetrazol-5-yl)phenyl]biphenyl-4-sulfonamide]
360 | Cc1c(S(=O)(=O)Nc2cccc(-c3nnn[nH]3)c2)sc2ccc(N)cc12 [Example 48, 5-Amino-3-methyl-N-[3-(1H-tetrazol-5-yl)phenyl]-1-benzothiophene-2-sulfonamide]
5070 | CC(=O)Nc1ccc2sc(S(=O)(=O)Nc3cccc(C(=O)O)c3)c(C)c2c1 [Example 49, 3-({[5-(Acetylamino)-3-methyl-1-benzothien-2-yl]sulfonyl}amino)benzoic acid]
2540 | O=S(=O)(Nc1cccc(-c2nnn[nH]2)c1)c1cccc(-c2cc(Cl)cc(Cl)c2)c1 [Example 52, 3-(3,5-Dichlorophenyl)-N-[3-(1-H-tetrazol-5-yl)phenyl]benzenesulfonamide]
1780 | Cc1cc(Cl)cc(Cl)c1S(=O)(=O)Nc1cccc(-c2nnn[nH]2)c1 [Example 53, 2,4-Dichloro-6-methyl-N-[3-(1H-tetrazol-5-yl)phenyl]benzenesulfonamide]
5750 | O=S(=O)(Nc1cccc(-c2nnn[nH]2)c1)c1cccc(-c2ccc(C(F)(F)F)cc2)c1 [Example 55, N-[3-(1H-Tetrazol-5-yl)phenyl]-3-[4-(trifluoromethyl)phenyl]benzenesulfonamide]
1120 | O=S(=O)(Nc1cccc(-c2nnn[nH]2)c1)c1ccc(Br)cc1C(F)(F)F [Example 56, 4-Bromo-N-[3-(1H-tetrazol-5-yl)phenyl]-2-(trifluoromethyl)benzenesulfonamide]
540 | NC(=O)c1cccc(-c2ccc(S(=O)(=O)Nc3cccc(-c4nnn[nH]4)c3)s2)c1 [Example 58, 3-[5-[[3-(1H-Tetrazol-5-yl)phenyl]sulfamoyl]-2-thienyl]benzamide]
560 | O=S(=O)(Nc1cccc(-c2nnn[nH]2)c1)c1ccc(-c2nsc(Cl)n2)s1 [Example 59, 5-(5-Chloro-1,2,4-thiadiazol-3-yl)-N-[3-(1H-tetrazol-5-yl)phenyl]thiophene-2-sulfonamide]
6690 | O=C(O)c1cccc(NS(=O)(=O)c2ccc(-c3ccccn3)s2)c1 [Example 78, 3-{[(5-Pyridin-2-yl-2-thienyl)sulfonyl]amino}benzoic acid]
6310 | O=C(O)c1cccc(NS(=O)(=O)c2ccc(-c3ccon3)s2)c1 [Example 79, 3-{[(5-Isoxazol-3-yl-2-thienyl)sulfonyl]amino}benzoic acid]
9840 | O=S(=O)(Nc1cccc(-c2nnn[nH]2)c1)c1ccc(F)cc1Cl [Example 81, 2-Chloro-4-fluoro-N-[3-(1H-tetrazol-5-yl)phenyl]benzenesulfonamide]
8450 | O=S(=O)(Nc1cccc(-c2nnn[nH]2)c1)c1ccc(-c2cnco2)cc1 [Example 83, 4-(1,3-Oxazol-5-yl)-N-[3-(1H-tetrazol-5-yl)phenyl]benzenesulfonamide]

Source: US9233946B2, “Sulfonamide compounds” (KANCERA AB, priority 2010, dated 2016)
